Assay results taken from PubChem BioAssay (NCI).
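At the GI50, growth is halved. TGI denotes the concentration required for complete inhibition of growth.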

Assays:
Experiment in all cases: inhibition of tumour cell growth, NCI panel, 384-well format
[1] = tested on: MCF7 breast
[2] = tested on: SF-295 CNS
[3] = tested on: RPMI-8226 leukemia
[4] = tested on: HCC-2998 colon
[5] = tested on: CAKI-1 renal
[6] = tested on: U251 glioblastoma
[7] = tested on: HL-60(TB) leukemia
[8] = tested on: HT29 colon
[9] = tested on: NCI-H23 lung
[10] = tested on: CCRF-CEM leukemia
[11] = tested on: SNB-19 CNS
[12] = tested on: MDA-MB-231 breast
[13] = tested on: EKVX NSCLC
[14] = tested on: NCI/ADR-RES ovarian
[15] = tested on: OVCAR-3 ovarian
[16] = tested on: OVCAR-4 ovarian
[17] = tested on: 786-0 renal
[18] = tested on: T-47D breast
[19] = tested on: COLO 205 colon
[20] = tested on: ACHN renal
[21] = tested on: BT-549 breast
[22] = tested on: SN12C renal
[23] = tested on: M14 melanoma
[24] = tested on: TK-10 renal
[25] = tested on: MDA-MB-468 breast
[26] = tested on: DU-145 prostate
[27] = tested on: NCI-H460 NSCLC
[28] = tested on: SF-268 CNS
[29] = tested on: MALME-3M melanoma
[30] = tested on: OVCAR-5 ovarian
[31] = tested on: NCI-H226 lung
[32] = tested on: IGROV1 ovarian
[33] = tested on: RXF 393 renal
[34] = tested on: HOP-92 NSCLC
[35] = tested on: HCT-15 colon
[36] = tested on: PC-3 prostate
[37] = tested on: KM12 colon
[38] = tested on: A549 NSCLC
[39] = tested on: UACC-62 melanoma
[40] = tested on: MDA-MB-435 melanoma
[41] = tested on: SK-OV-3 ovarian
[42] = tested on: HOP-62 NSCLC
[43] = tested on: NCI-H322M lung
[44] = tested on: SK-MEL-2 melanoma
[45] = tested on: NCI-H522 lung
[46] = tested on: A498 renal
[47] = tested on: HS 578T breast
[48] = tested on: MOLT-4 leukemia
[49] = tested on: SK-MEL-5 melanoma
[50] = tested on: UACC-257 melanoma
[51] = tested on: SW-620 colon
[52] = tested on: SK-MEL-28 melanoma
[53] = tested on: SF-539 CNS
[54] = tested on: OVCAR-8 ovarian
[55] = tested on: SR leukemia

Work on Cn1cc(C[C@@H](N)C(=O)O)c2ccccc21 yielded a GI50 [1] of over 100 µM, a TGI [1] of over 100 µM and a GI50 [2] of over 100 µM. It also gave a TGI [2] of over 100 µM, a GI50 [3] of over 100 µM and a TGI [3] of over 100 µM. It also gave a GI50 [4] of over 100 µM, a TGI [4] of over 100 µM and a GI50 [5] of over 100 µM. It also gave a TGI [5] of over 100 µM, a GI50 [6] of over 100 µM and a TGI [6] of over 100 µM. For the same molecule, the GI50 [7] was over 100 µM, the TGI [7] was over 100 µM and the GI50 [8] was over 100 µM. The TGI [8] was over 100 µM, the GI50 [9] was over 100 µM and the TGI [9] was over 100 µM. The GI50 [10] was over 100 µM, the TGI [10] was over 100 µM and the GI50 [11] was over 100 µM. It also gave a TGI [11] of over 100 µM, a GI50 [12] of over 100 µM and a TGI [12] of over 100 µM. The GI50 [13] was over 100 µM, the TGI [13] was over 100 µM and the GI50 [14] was over 100 µM. It also gave a TGI [14] of over 100 µM, a GI50 [15] of over 100 µM and a TGI [15] of over 100 µM. For the same molecule, the GI50 [16] was over 100 µM, the TGI [16] was over 100 µM and the GI50 [17] was over 100 µM. For the same molecule, the TGI [17] was over 100 µM, the GI50 [18] was over 100 µM and the TGI [18] was over 100 µM. For the same molecule, the GI50 [19] was over 100 µM, the TGI [19] was over 100 µM and the GI50 [20] was over 100 µM. For the same molecule, the TGI [20] was over 100 µM, the GI50 [21] was over 100 µM and the TGI [21] was over 100 µM. For the same molecule, the GI50 [22] was over 100 µM, the TGI [22] was over 100 µM and the GI50 [23] was over 100 µM. For the same molecule, the TGI [23] was over 100 µM, the GI50 [24] was over 100 µM and the TGI [24] was over 100 µM. It also gave a GI50 [25] of over 100 µM, a TGI [25] of over 100 µM and a GI50 [26] of over 100 µM. The TGI [26] was over 100 µM, the GI50 [27] was over 100 µM and the TGI [27] was over 100 µM. The GI50 [28] was over 100 µM, the TGI [28] was over 100 µM and the GI50 [29] was over 100 µM. The TGI [29] was over 100 µM, the GI50 [30] was over 100 µM and the TGI [30] was over 100 µM. The GI50 [31] was over 100 µM, the TGI [31] was over 100 µM and the GI50 [32] was over 100 µM. The TGI [32] was over 100 µM, the GI50 [33] was over 100 µM and the TGI [33] was over 100 µM. It also gave a GI50 [34] of over 100 µM, a TGI [34] of over 100 µM and a GI50 [35] of over 100 µM. For the same molecule, the TGI [35] was over 100 µM, the GI50 [36] was over 100 µM and the TGI [36] was over 100 µM. For the same molecule, the GI50 [37] was over 100 µM, the TGI [37] was over 100 µM and the GI50 [38] was over 100 µM. It also gave a TGI [38] of over 100 µM, a GI50 [39] of over 100 µM and a TGI [39] of over 100 µM. The GI50 [40] was over 100 µM, the TGI [40] was over 100 µM and the GI50 [41] was over 100 µM. It also gave a TGI [41] of over 100 µM, a GI50 [42] of over 100 µM and a TGI [42] of over 100 µM. It also gave a GI50 [43] of over 100 µM, a TGI [43] of over 100 µM and a GI50 [44] of over 100 µM. The TGI [44] was over 100 µM, the GI50 [45] was over 100 µM and the TGI [45] was over 100 µM. The GI50 [46] was over 100 µM, the TGI [46] was over 100 µM and the GI50 [47] was over 100 µM. The TGI [47] was over 100 µM, the GI50 [48] was over 100 µM and the TGI [48] was over 100 µM. It also gave a GI50 [49] of over 100 µM, a TGI [49] of over 100 µM and a GI50 [50] of over 100 µM. For the same molecule, the TGI [50] was over 100 µM, the GI50 [51] was over 100 µM and the TGI [51] was over 100 µM. The GI50 [52] was over 100 µM, the TGI [52] was over 100 µM and the GI50 [53] was over 100 µM. For the same molecule, the TGI [53] was over 100 µM, the GI50 [54] was over 100 µM and the TGI [54] was over 100 µM. The GI50 [55] was over 100 µM and the TGI [55] was over 100 µM.
